Experimental data published in patent US20070049564A1 (Wyeth, priority 2005, published 2007).
≈ marks a conversion by molar mass, not a printed value. Like-named read-outs stand apart in the source and are kept apart here.

Tests used:
S. pneumoniae* GC 4465 = test: MIC, broth microdilution; conditions: Streptococcus pneumoniae
E. coli GC 4560 = test: MIC, broth microdilution; conditions: Escherichia coli
S. aureus GC 6466 = test: MIC, broth microdilution; conditions: Staphylococcus aureus
E. coli GC 2234 = test: MIC, broth microdilution; conditions: Escherichia coli
E. coli GC 6465 = test: MIC, broth microdilution; conditions: Escherichia coli
Experimental: Antimicrobial susceptibility testing. The in vitro activities of the antibiotics are determined by the broth microdilution method as recommended by the National Committee for Clinical Laboratory Standards (NCCLS) (1). Mueller-Hinton II broth (MHBII)(BBL Cockeysville, Md.) is the medium employed in the testing procedures. Microtiter plates containing serial dilutions of each antimicrobial agent are inoculated with each organism to yield the appropriate density (10^5 CFU/ml) in a 100 μl final volume. The plates are incubated for 18-22 hours at 35° C. in ambient air.
Representative compounds were first incubated in mouse serum for an hour prior to the in vitro testing against a panel of selected gram-positive and gram-negative bacteria strains. All compounds were also pre-incubated in water for an hour prior to testing as control.

E. coli GC 2235 = test: MIC, broth microdilution; conditions: Escherichia coli
E. faecalis GC 4555 = test: MIC, broth microdilution; conditions: Enterococcus faecalis
E. faecium GC 4556 = test: MIC, broth microdilution; conditions: Enterococcus faecium
Staph. = test: Range of MIC for Staph. strains, including MRSA; conditions: Staphylococcus aureus
E. coli GC 2272 = test: MIC, broth microdilution; conditions: Escherichia coli
S. aureus GC 6467 = test: MIC, broth microdilution; conditions: Staphylococcus aureus
S. aureus GC 1131 = test: MIC, broth microdilution; conditions: Staphylococcus aureus
E. coli GC 2203 = test: MIC, broth microdilution; conditions: Escherichia coli
E. faecalis GC 2267 = test: MIC, broth microdilution; conditions: Enterococcus faecalis
S. aureus GC 1079 = test: MIC, broth microdilution; conditions: Staphylococcus aureus
E. coli GC 2233 = test: MIC, broth microdilution; conditions: Escherichia coli
E. coli GC 2231 = test: MIC, broth microdilution; conditions: Escherichia coli
E. coli GC 2236 = test: MIC, broth microdilution; conditions: Escherichia coli
S. epidermidis GC 4935 = test: MIC, broth microdilution; conditions: Staphylococcus epidermidis
S. typhimurium GC 2172 = test: MIC, broth microdilution; conditions: Salmonella enterica, TYPHIMURIUM
[1] = read-out: MINIMAL INHIBITORY CONCENTRATION MIC, Human Serum
[2] = read-out: MINIMAL INHIBITORY CONCENTRATION MIC, Mouse Serum
[3] = read-out: MINIMAL INHIBITORY CONCENTRATION MIC, Water

SMILES: CN(C)c1cc(NC(=O)CN(C(=O)OCOC(=O)C2CCCCC2)C(C)(C)C)c(O)c2c1C[C@H]1C[C@H]3[C@H](N(C)C)C(O)=C(C(N)=O)C(=O)[C@@]3(O)C(O)=C1C2=O [Example 50, ({[(2-{[(5aR,6aS,7S,10aS)-9-(aminocarbonyl)-4,7-bis(dimethylamino)-1,8,10a,11-tetrahydroxy-10,12-dioxo-5,5a,6,6a,7,10,10a,12-octahydrotetracen-2-yl]amino}-2-oxoethyl)(tert-butyl)amino]carbonyl}oxy)methyl cyclohexanecarboxylate]
- MIC (S. pneumoniae* GC 4465; [1]): < 0.06 µg/mL
- MIC (S. pneumoniae* GC 4465; [2]): < 0.06 µg/mL
- MIC (S. pneumoniae* GC 4465; [3]): < 0.06 µg/mL
- MIC (E. coli GC 4560; GC4560, read-out: MINIMAL INHIBITORY CONCENTRATION MIC, Human Serum): 2 µg/mL (≈ 2.6 µM)
- MIC (E. coli GC 4560; GC4560, read-out: MINIMAL INHIBITORY CONCENTRATION MIC, Mouse Serum): 0.5 µg/mL (≈ 0.649 µM)
- MIC (E. coli GC 4560; GC4560, read-out: MINIMAL INHIBITORY CONCENTRATION MIC, Water): 4 µg/mL (≈ 5.2 µM)
- MIC (S. aureus GC 6466; GC6466, read-out: MINIMAL INHIBITORY CONCENTRATION MIC, Human Serum): 0.25 µg/mL (≈ 0.325 µM)
- MIC (S. aureus GC 6466; GC6466, read-out: MINIMAL INHIBITORY CONCENTRATION MIC, Mouse Serum): 0.25 µg/mL (≈ 0.325 µM)
- MIC (S. aureus GC 6466; GC6466, read-out: MINIMAL INHIBITORY CONCENTRATION MIC, Water): 0.25 µg/mL (≈ 0.325 µM)
- MIC (E. coli GC 2234; GC2234, read-out: MINIMAL INHIBITORY CONCENTRATION MIC, Human Serum): 8 µg/mL (≈ 10.4 µM)
- MIC (E. coli GC 2234; GC2234, read-out: MINIMAL INHIBITORY CONCENTRATION MIC, Mouse Serum): 1 µg/mL (≈ 1.3 µM)
- MIC (E. coli GC 2234; GC2234, read-out: MINIMAL INHIBITORY CONCENTRATION MIC, Water): 64 µg/mL (≈ 83.1 µM)
- MIC (E. coli GC 6465; GC6465, read-out: MINIMAL INHIBITORY CONCENTRATION MIC, Human Serum): 16 µg/mL (≈ 20.8 µM)
- MIC (E. coli GC 6465; GC6465, read-out: MINIMAL INHIBITORY CONCENTRATION MIC, Mouse Serum): 2 µg/mL (≈ 2.6 µM)
- MIC (E. coli GC 6465; GC6465, read-out: MINIMAL INHIBITORY CONCENTRATION MIC, Water): > 64 µg/mL
- MIC (E. coli GC 2235; GC2235, read-out: MINIMAL INHIBITORY CONCENTRATION MIC, Human Serum): 4 µg/mL (≈ 5.2 µM)
- MIC (E. coli GC 2235; GC2235, read-out: MINIMAL INHIBITORY CONCENTRATION MIC, Mouse Serum): 1 µg/mL (≈ 1.3 µM)
- MIC (E. coli GC 2235; GC2235, read-out: MINIMAL INHIBITORY CONCENTRATION MIC, Water): 32 µg/mL (≈ 41.6 µM)
- MIC (E. faecalis GC 4555; GC4555, read-out: MINIMAL INHIBITORY CONCENTRATION MIC, Human Serum): 2 µg/mL (≈ 2.6 µM)
- MIC (E. faecalis GC 4555; GC4555, read-out: MINIMAL INHIBITORY CONCENTRATION MIC, Mouse Serum): 1 µg/mL (≈ 1.3 µM)
- MIC (E. faecalis GC 4555; GC4555, read-out: MINIMAL INHIBITORY CONCENTRATION MIC, Water): 4 µg/mL (≈ 5.2 µM)
- MIC (E. faecium GC 4556; GC4556, read-out: MINIMAL INHIBITORY CONCENTRATION MIC, Human Serum): 1 µg/mL (≈ 1.3 µM)
- MIC (E. faecium GC 4556; GC4556, read-out: MINIMAL INHIBITORY CONCENTRATION MIC, Mouse Serum): 1 µg/mL (≈ 1.3 µM)
- MIC (E. faecium GC 4556; GC4556, read-out: MINIMAL INHIBITORY CONCENTRATION MIC, Water): 2 µg/mL (≈ 2.6 µM)
- MIC (Staph.; MRSA, read-out: Range of MIC, Staph (Mouse Serum)): 0.25 to 2 µg/mL (≈ 0.325 to 2.6 µM)
- MIC (Staph.; MRSA, read-out: Range of MIC, Staph (Water)): 0.25 to 4 µg/mL (≈ 0.325 to 5.2 µM)
- MIC (Staph.; read-out: Minimum inhibitory concentration (MIC), Staph (Human Serum)): 0.25 to 2 µg/mL (≈ 0.325 to 2.6 µM)
- MIC (Staph.; read-out: Minimum inhibitory concentration (MIC), Staph (Water)): 0.25 to 4 µg/mL (≈ 0.325 to 5.2 µM)
- MIC (E. coli GC 2272; GC2272, read-out: MINIMAL INHIBITORY CONCENTRATION MIC, Human Serum): 4 µg/mL (≈ 5.2 µM)
- MIC (E. coli GC 2272; GC2272, read-out: MINIMAL INHIBITORY CONCENTRATION MIC, Mouse Serum): 1 µg/mL (≈ 1.3 µM)
- MIC (E. coli GC 2272; GC2272, read-out: MINIMAL INHIBITORY CONCENTRATION MIC, Water): 32 µg/mL (≈ 41.6 µM)
- MIC (S. aureus GC 6467; GC6467, read-out: MINIMAL INHIBITORY CONCENTRATION MIC, Human Serum): 0.25 µg/mL (≈ 0.325 µM)
- MIC (S. aureus GC 6467; GC6467, read-out: MINIMAL INHIBITORY CONCENTRATION MIC, Mouse Serum): 0.25 µg/mL (≈ 0.325 µM)
- MIC (S. aureus GC 6467; GC6467, read-out: MINIMAL INHIBITORY CONCENTRATION MIC, Water): 2 µg/mL (≈ 2.6 µM)
- MIC (S. aureus GC 1131; GC1131, read-out: MINIMAL INHIBITORY CONCENTRATION MIC, Human Serum): 0.5 µg/mL (≈ 0.649 µM)
- MIC (S. aureus GC 1131; GC1131, read-out: MINIMAL INHIBITORY CONCENTRATION MIC, Mouse Serum): 0.5 µg/mL (≈ 0.649 µM)
- MIC (S. aureus GC 1131; GC1131, read-out: MINIMAL INHIBITORY CONCENTRATION MIC, Water): 1 µg/mL (≈ 1.3 µM)
- MIC (E. coli GC 2203; GC2203, read-out: MINIMAL INHIBITORY CONCENTRATION MIC, Human Serum): 8 µg/mL (≈ 10.4 µM)
- MIC (E. coli GC 2203; GC2203, read-out: MINIMAL INHIBITORY CONCENTRATION MIC, Mouse Serum): 1 µg/mL (≈ 1.3 µM)
- MIC (E. coli GC 2203; GC2203, read-out: MINIMAL INHIBITORY CONCENTRATION MIC, Water): 32 µg/mL (≈ 41.6 µM)
- MIC (E. faecalis GC 2267; GC2267, read-out: MINIMAL INHIBITORY CONCENTRATION MIC, Human Serum): 2 µg/mL (≈ 2.6 µM)
- MIC (E. faecalis GC 2267; GC2267, read-out: MINIMAL INHIBITORY CONCENTRATION MIC, Mouse Serum): 1 µg/mL (≈ 1.3 µM)
- MIC (E. faecalis GC 2267; GC2267, read-out: MINIMAL INHIBITORY CONCENTRATION MIC, Water): 4 µg/mL (≈ 5.2 µM)
- MIC (S. aureus GC 1079; GC1079, read-out: MINIMAL INHIBITORY CONCENTRATION MIC, Human Serum): 0.5 µg/mL (≈ 0.649 µM)
- MIC (S. aureus GC 1079; GC1079, read-out: MINIMAL INHIBITORY CONCENTRATION MIC, Mouse Serum): 0.5 µg/mL (≈ 0.649 µM)
- MIC (S. aureus GC 1079; GC1079, read-out: MINIMAL INHIBITORY CONCENTRATION MIC, Water): 2 µg/mL (≈ 2.6 µM)
- MIC (E. coli GC 2233; GC2233, read-out: MINIMAL INHIBITORY CONCENTRATION MIC, Human Serum): 8 µg/mL (≈ 10.4 µM)
- MIC (E. coli GC 2233; GC2233, read-out: MINIMAL INHIBITORY CONCENTRATION MIC, Mouse Serum): 1 µg/mL (≈ 1.3 µM)
- MIC (E. coli GC 2233; GC2233, read-out: MINIMAL INHIBITORY CONCENTRATION MIC, Water): 32 µg/mL (≈ 41.6 µM)
- MIC (E. coli GC 2231; GC2231, read-out: MINIMAL INHIBITORY CONCENTRATION MIC, Human Serum): 8 µg/mL (≈ 10.4 µM)
- MIC (E. coli GC 2231; GC2231, read-out: MINIMAL INHIBITORY CONCENTRATION MIC, Mouse Serum): 1 µg/mL (≈ 1.3 µM)
- MIC (E. coli GC 2231; GC2231, read-out: MINIMAL INHIBITORY CONCENTRATION MIC, Water): 64 µg/mL (≈ 83.1 µM)
- MIC (E. coli GC 2236; GC2236, read-out: MINIMAL INHIBITORY CONCENTRATION MIC, Human Serum): 8 µg/mL (≈ 10.4 µM)
- MIC (E. coli GC 2236; GC2236, read-out: MINIMAL INHIBITORY CONCENTRATION MIC, Mouse Serum): 1 µg/mL (≈ 1.3 µM)
- MIC (E. coli GC 2236; GC2236, read-out: MINIMAL INHIBITORY CONCENTRATION MIC, Water): 32 µg/mL (≈ 41.6 µM)
- MIC (S. epidermidis GC 4935; GC4935, read-out: MINIMAL INHIBITORY CONCENTRATION MIC, Human Serum): 2 µg/mL (≈ 2.6 µM)
- MIC (S. epidermidis GC 4935; GC4935, read-out: MINIMAL INHIBITORY CONCENTRATION MIC, Mouse Serum): 2 µg/mL (≈ 2.6 µM)
- MIC (S. epidermidis GC 4935; GC4935, read-out: MINIMAL INHIBITORY CONCENTRATION MIC, Water): 4 µg/mL (≈ 5.2 µM)
- MIC (S. typhimurium GC 2172; [1]): 32 µg/mL (≈ 41.6 µM)
- MIC (S. typhimurium GC 2172; [2]): 4 µg/mL (≈ 5.2 µM)
- MIC (S. typhimurium GC 2172; [3]): > 64 µg/mL
